Assays:
Type in all cases: in vivo, human
healthy subjects = test: Amenorrhea in healthy subjects
Description: (§1) Compound 1 is a potent Selective Progesterone Receptor Modulator (SPRM) and more particularly a competitive Progesterone Receptor (PR) antagonist creating alternatives for the treatment of Uterine Fibroids. […] Amenorrhea corresponds to the major objective of the treatment i.e. control of excessive uterine bleeding.

[1] = tested on: subjects with uterine fibroids; test: Study 17541: endometrium thickness, 3-month vs 6-month treatment without break (Example 6); details: 2 mg once daily, 13 subjects, blinded, preliminary data, 3 or 6 months without break
Protocol: A randomized, parallel-group, double-blind, placebo-controlled, multi-center study to assess efficacy of a dose of 2 mg of Compound 1 where primary efficacy variable is Endometrium thickness, in subjects with uterine fibroids over 3-month vs 6-month with or without treatment break.
(§2) Route of administration: Oral
Duration of treatment: 2×12 weeks (A1) or 1×12 weeks (A2) without treatment break
Women, 18 to 50 years old, with uterine fibroids documented by transvaginal or abdominal ultrasound at screening with at least 1 uterine fibroid with largest diameter 3 cm and Heavy Menstrual Bleeding (HMB) 80∃ ml were eligible for enrolment in the study.
Number of Women: 13 subjects having finished the treatment so far.
Eligible subjects were equally randomized to one of the treatment groups (Placebo, 2 mg of Compound 1). Treatment period was started during the first three days of the bleeding episode following randomization or ongoing at randomization. The treatment period will consist of 3 months (12 weeks) or 6 months [2×12 weeks (84 days)] of daily tablet intake without treatment break. • Treatment A1: 2 mg of Compound 1 (12 weeks), 2 mg of Compound 1 (12 weeks). • Treatment A2: Placebo (12 weeks), 2 mg of Compound 1 (12 weeks).
After the end of treatment period, subjects were followed up for 12 weeks. […]

uterine fibroids = test: Study 15788: change in volume of largest fibroid by MRI and TVU (Example 8)
Protocol: A randomized, parallel-group, double-blind, placebo-controlled, multi-center study to assess efficacy of different doses of Compound 1 where secondary efficacy variable is the change in volume of the largest fibroid in subjects wherein treatment is of 3 months [1×12 weeks (84 days)]. Doses: 0.5 mg, 1 mg, 2 mg, or 4 mg once daily Route of administration: Oral Duration of treatment: 1×12 weeks (84 days) Women, 18 to 50 years old, with uterine fibroids documented by transvaginal or abdominal ultrasound at screening with at least 1 uterine fibroid with largest diameter 3 cm and heavy menstrual bleeding (HMB) 80 ml were be eligible for enrolment in the study. The secondary efficacy variable is the percent change in volume of the largest fibroid compared to baseline (measured by MRI and TVU) • MRI: Magnetic Resonance Imaging • TVU: Transvaginal/abdominal ultrasound Ultrasound examination was performed consistent with the schedule of procedures (Table 1). For each subject, the most appropriate ultrasound method (transvaginal or abdominal) was used depending on fibroid location and this method was consistently used throughout the study. The same ultrasound machine (per site) should be used throughout the study. The 3 largest fibroids were identified during the screening period. […]

[2] = tested on: subjects with uterine fibroids; test: Study 17541: endometrium thickness, 2x3-month treatment with break period (Example 7); details: 2 mg once daily, 6 subjects, blinded, 2x12 weeks with 1 bleeding episode break or 1x12 weeks
Protocol: A randomized, parallel-group, double-blind, placebo-controlled, multi-center study to assess efficacy of a dose of 2 mg of Compound 1 where primary efficacy variable is Endometrial thickness, in subjects with uterine fibroids over 2×3-month with break period allowing bleeding episode.
as §2
Duration of treatment: 2×3-month [2×12 weeks]+one bleeding episode (B1) and 1×3-month [1×12 weeks] (B2) without treatment break
Women, 18 to 50 years old, with uterine fibroids documented by transvaginal or abdominal ultrasound at screening with at least 1 uterine fibroid with largest diameter 3.0 cm and heavy menstrual bleeding (HMB) […] were eligible for enrolment in the study.
Number of Women: 6 subjects that have finalized the treatment
Eligible subjects were equally randomized to one of the treatment groups (Placebo, 2 mg of Compound 1). Treatment period was started during the first three days of the bleeding episode following randomization or ongoing at randomization. The treatment period was consisting of daily tablet intake without treatment break. • Treatment B1: 2 mg of Compound 1 (12 weeks), 1 bleeding episode, 2 mg of Compound 1 (12 • weeks). • Treatment B2: Placebo (12 weeks), 1 bleeding episode, 2 mg of Compound 1 (12 weeks).
Efficacy Measurement: • endometrial biopsies, • cervical smear, • transvaginal ultrasound (TUV) (endometrial thickness, ovaries). […]

[3] = tested on: patient diagnosed with Uterine Fibroids; test: Long term treatment of patients with Compound 1, summary findings
Description: as §1

Endometrial size [1]: ≤ 18 mm | Endometrial size [2]: ≤ 18 mm
SMILES: C[C@]12C[C@H](c3ccc(S(C)(=O)=O)cc3)C3=C4CCC(=O)C=C4CC[C@H]3[C@@H]1CC[C@@]2(O)C(F)(F)C(F)(F)F [Compound 1, (11β,17β)-17-Hydroxy-11-[4-(methylsulphonyl)phenyl]-17-(pentafluoroethyl)estra-4,9-dien-3-one]
Amenorrhea (healthy subjects): Amenorrhea was observed | Treatment-emergent critical endometrial findings [1]: no treatment-emergent critical endometrial findings occurred | Fibroid size during treatment (uterine fibroids; 0.5-4 mg once daily, 12 weeks, MRI and TVU): dose-dependent reduction in fibroid size | Effect on fibroid size during follow-up (uterine fibroids; follow-up after 12 weeks treatment): partially sustained during follow-up | Treatment-emergent critical endometrial findings [2]: no treatment-emergent critical endometrial findings occurred | Amenorrhea [3]: observed at early stage and with high intensity | Endometrial hypertrophy (TEAE) [3]: no endometrial hypertrophy was reported | Major safety findings [3]: no major safety findings were reported | Ovulation inhibition [3]: ovulation inhibition was observed | Pelvic pain [3]: found to be reduced | Uterine fibroids size [3]: clearly reduced

Reference: patent publication US10858388B2, “Selective progesterone receptor modulator (SPRM) regimen” (BAYER PHARMA AKTIENGESELLSCHAFT, priority 2015, dated 2020)
